In patent publication US20240016781A1, “TREATMENT OF KRAS MUTANT CANCERS” (MEI Pharma, Inc., priority 2020, published 2024):
Where “and” joins values, the source holds several entries; their conditions need not be identical. Equal values may be shown once.

Columns and labels:
Test in all cases: 72-hour CellTiter-Glo 2.0 growth inhibition screen (single agent, 9x9 combination dose matrix)
Format in all cases: cell-based
[1] = tested on: AsPC-1
Description: (§1) Growth inhibition was determined using a 72-hour CellTiter-Glo®2.0 proliferation assay. Combination format was a 9×9 dose matrix. Six of the 20 cell lines received the original two combinations whilst the remaining 14 cell lines received two additional combinations resulting in four combinations in total. Results have been supplied as both Chalice Analyzer files (.mcc) and raw luminescence data.
(§2) Cell lines that have been preserved in liquid nitrogen are thawed and expanded in growth media (see Appendix I). Once cells have reached expected doubling times, screening begins. Cells are seeded in 25 μl of growth media in black 384-well tissue culture treated plates at 500 cells per well (as noted in Analyzer). Cells are equilibrated in assay plates via centrifugation and placed at 37° C. 5% CO2 for twenty-four hours before treatment. […] Compounds are transferred to assay plates using and Echo acoustic liquid handling system. […] of each compound was added at the appropriate concentration for all combination dose points. Therefore, final assay volume would be 25.05 μl. Assay plates are incubated with compound for 3 days and are then analyzed using CellTiter-Glo 2.0. All data points are collected via automated processes and are subject to quality control and analyzed.
(§3) If T≥V_0:100*(1−(T−V_0)/(V−V_0)) • where T is the signal measure for a test article, V is the untreated/vehicle-treated control measure, and Vo is the untreated/vehicle control measure at time zero (also colloquially referred as TO plates). This formula is derived from the Growth Inhibition calculation used in the National Cancer Institute's NCI-60 high throughput screen. For the purposes of this disclosure, all data analysis was performed in Growth Inhibition (except where noted).
(§4) Inhibition is also provided as a measure of cell viability. […] Inhibition of 100% represents no doubling of cell numbers during the treatment window. Both cytostatic and cytotoxic treatments can yield an Inhibition percentage of 100%. Inhibition percentage is calculated as the following: […]
(§5) The fractional inhibition for each component agent and combination point in the matrix is calculated relative to the median of all untreated/vehicle-treated control wells. The Synergy Score equation integrates the experimentally-observed activity volume at each point in the matrix in excess of a model surface numerically derived from the activity of the component agents using the Loewe model for additivity. Additional terms in the Synergy Score equation (above) are used to normalize for various dilution factors used for individual agents and to allow for comparison of synergy scores across an entire experiment. The inclusion of positive inhibition gating or an Idata multiplier removes noise near the zero-effect level, and biases results for synergistic interactions at that occur at high activity levels. Combinations with higher maximum Growth Inhibition (GI) effects or those which are synergistic at low concentrations will have higher Synergy Scores.
(§6) The CI is a rough estimate of how much drug was needed in combination relative to the single agent doses required to achieve the chosen effect level. CI values in the range of 0.5-0.7 are typical for in vitro measurements of current clinical combinations. The CI error (σCI) is calculated using standard error propagation through the CI calculation based on the isobologram errors. In the Chalice Analyzer, the Best CI is reported from the many CI values calculated for each Icut crossing combination. Among all the measured CI values, the one with the largest single-to-noise level (1−CI)/σCI is reported as the Best CI. Best CI Level is the effect level from which the CI is calculated.

[2] = tested on: Gp2D
Description: as §1, §2, §3, §4, §5, §6

[3] = tested on: SW837
Description: as §1, §2, §3, §4, §5, §6

[4] = tested on: SW48
Description: as §1, §2, §3, §4, §5, §6

[5] = tested on: NCI-H2030
Description: as §1, §2, §3, §4, §5, §6

[6] = tested on: LS-513
Description: as §1, §2, §3, §4, §5, §6

[7] = tested on: NCI-H1792
Description: as §1, §2, §3, §4, §5, §6

[8] = tested on: HCC1171; settings: HCC1171, Lung; growth inhibition (GI), AUC, single agent, 72 h
Description: as §1, §2, §3, §4, §5, §6

[9] = tested on: HCC44; settings: HCC44, Lung; growth inhibition (GI), AUC, single agent, 72 h
Description: as §1, §2, §3, §4, §5, §6

[10] = tested on: MIA PaCa-2
Description: as §1, §2, §3, §4, §5, §6

[11] = tested on: Panc 04.03
Description: as §1, §2, §3, §4, §5, §6

[12] = tested on: SW48 KRAS (G12C/+)
Description: as §1, §2, §3, §4, §5, §6

[13] = tested on: NCI-H1373
Description: as §1, §2, §3, §4, §5, §6

[14] = tested on: HPAF-II
Description: as §1, §2, §3, §4, §5, §6

[15] = tested on: NCI-H358
Description: as §1, §2, §3, §4, §5, §6

[16] = tested on: NCI-H23
Description: as §1, §2, §3, §4, §5, §6

[17] = tested on: KYSE-410
Description: as §1, §2, §3, §4, §5, §6

[18] = tested on: TOV-21G; settings: TOV-21G, Ovary; growth inhibition (GI), AUC, single agent, 72 h
Description: as §1, §2, §3, §4, §5, §6

With C=C(F)C(=O)N1CCN(c2nc(OC[C@@H]3CCCN3C)nc3c2CCN(c2cccc4cccc(Cl)c24)C3)C[C@@H]1CC#N [MRTX849] the “Loewe Volume” value [1] was 0.71 and 0.37, the “Response Area” value ([1]; AsPC-1, Pancreas, growth inhibition (GI), AUC, single agent, 72 h) was 2.27 and the “Loewe Volume” value [2] was 0.46 and 0.37. For the same compound, the “Response Area” value ([2]; Gp2D, Colorectal, growth inhibition (GI), AUC, single agent, 72 h) was 1.86, the HSA volume [3] was 6.87 and 4.50 and the “Loewe Volume” value [3] was 5.57. For the same compound, the “Response Area” value ([3]; SW837, Colorectal, growth inhibition (GI), AUC, single agent, 72 h) was 5.55, the “Bliss Volume” value [4] was 9.14 and 4.79 and the HSA volume [4] was 3.40 and 2.30. The “Loewe Volume” value [4] was 6.95 and 4.49, the “Response Area” value ([4]; SW48, Colorectal, growth inhibition (GI), AUC, single agent, 72 h) was 2.78 and the HSA volume [5] was 1.90 and 1.28. For the same compound, the “Response Area” value ([5]; NCl-H2030, Lung, growth inhibition (GI), AUC, single agent, 72 h) was 2.65, the HSA volume [6] was 0.51 and 0.34 and the “Loewe Volume” value [6] was 0.85 and 0.46. For the same compound, the “Response Area” value ([6]; LS-513, Colorectal, growth inhibition (GI), AUC, single agent, 72 h) was 1.56, the HSA volume [7] was 4.71 and 3.40 and the “Loewe Volume” value [7] was 5.13 and 3.37. The “Response Area” value ([7]; NCl-H1792, Lung, growth inhibition (GI), AUC, single agent, 72 h) was 3.02, the “Response Area” value [8] was 5.95 and the “Response Area” value [9] was 3.02. For the same compound, the HSA volume [10] was 5.25 and 2.97, the “Loewe Volume” value [10] was 4.29 and 2.30 and the HSA volume [11] was 0.64 and 0.37. For the same compound, the “Loewe Volume” value [11] was 3.31 and 1.76, the “Response Area” value ([11]; Panc 04.03, Pancreas, growth inhibition (GI), AUC, single agent, 72 h) was 2.20 and the HSA volume [12] was 4.53. For the same compound, the “Loewe Volume” value [12] was 4.75 and 2.96, the “Response Area” value ([12]; SW48 KRAS (G12C/+), Colorectal, growth inhibition (GI), AUC, single agent, 72 h) was 2.88 and the HSA volume [13] was 2.06 and 1.03. The “Response Area” value ([13]; NCl-H1373, Lung, growth inhibition (GI), AUC, single agent, 72 h) was 4.82, the HSA volume [14] was 1.34 and 0.93 and the “Response Area” value ([14]; HPAF-II, Pancreas, growth inhibition (GI), AUC, single agent, 72 h) was 2.04. For the same compound, the HSA volume [15] was 2.90, the “Response Area” value ([15]; NCl-H358, Lung, growth inhibition (GI), AUC, single agent, 72 h) was 5.85 and the HSA volume [16] was 5.10 and 2.97. For the same compound, the “Loewe Volume” value [16] was 4.80 and 2.46, the “Response Area” value ([16]; NCl-H23, Lung, growth inhibition (GI), AUC, single agent, 72 h) was 4.15 and the “Bliss Volume” value [17] was 7.25 and 5.69. For the same compound, the HSA volume [17] was 2.25 and 1.80, the “Loewe Volume” value [17] was 6.19 and 5.14 and the “Response Area” value ([17]; KYSE-410, Esophageal, growth inhibition (GI), AUC, single agent, 72 h) was 2.24. The “Response Area” value [18] was 2.28.
